Laboratory results published in ChEMBL document CHEMBL1201862, “PubChem BioAssay data set” (2004).
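Results reflect a 48-hour exposure of cells in 96-well plates to compound at five concentrations. Here, GI50 denotes the concentration required for 50% inhibition of growth.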 Activity calls are given as the source filed them. Cut-off read from the data, not from the text of the source: active = GI50 up to about 1.1 µM and inactive = higher.

Tests used:
Experiment in all cases: DTP human tumour cell line panel, 48 h
A549 = tested on: A549
SN12C = tested on: SN12C
EKVX = tested on: EKVX
RXF 393 = tested on: RXF 393
CCRF-CEM = tested on: CCRF-CEM
OVCAR-5 = tested on: OVCAR-5
HOP-92 = tested on: HOP-92
SK-OV-3 = tested on: SK-OV-3
NCI-H226 = tested on: NCI-H226
HCC 2998 = tested on: HCC 2998
OVCAR-3 = tested on: OVCAR-3
786-0 = tested on: 786-0
ACHN = tested on: ACHN
HOP-62 = tested on: HOP-62
NCI-H522 = tested on: NCI-H522
SF-268 = tested on: SF-268
HL-60 = tested on: HL-60
MDA-N = tested on: MDA-N
NCI/ADR-RES = tested on: NCI/ADR-RES

SMILES | GI50 (A549) | GI50 (SN12C) | GI50 (EKVX) | GI50 (RXF 393) | GI50 (CCRF-CEM) | GI50 (OVCAR-5) | GI50 (HOP-92) | GI50 (SK-OV-3) | GI50 (NCI-H226) | GI50 (HCC 2998) | GI50 (OVCAR-3) | GI50 (786-0) | GI50 (ACHN) | GI50 (HOP-62) | GI50 (NCI-H522) | GI50 (SF-268) | GI50 (HL-60) | GI50 (MDA-N) | GI50 (NCI/ADR-RES)
Cc1nnc(N/N=C(/C(=O)C(C#N)c2ccccc2)C(C#N)c2ccccc2)n1N (stereo not given) | 20.2 µM (inactive) | 3.13 µM (inactive) | 51.9 µM (inactive) | 17 µM (inactive) | 2.12 µM (inactive) | > 42.9 µM (inactive) | > 100 µM (inactive) | > 61.4 µM (inactive) | 28.8 µM (inactive) | 4.85 µM (inactive) | 20 µM (inactive) | 11.8 µM (inactive) | 22.3 µM (inactive) | 50.7 µM (inactive) | 17.9 µM (inactive) | 31 µM (inactive) | 17.9 µM (inactive) | – | –
CN1C(=O)C(=O)N2c3ccc(Cl)cc3C3(c4ccccc4)N=CC12O3 (stereo not given) | 10.8 µM (inactive) | 3.53 µM (inactive) | 8.87 µM (inactive) | 1.9 µM (inactive) | 3.03 µM (inactive) | 6.93 µM (inactive) | 2.39 µM (inactive) | 10.1 µM (inactive) | 10.1 µM (inactive) | 14.7 µM (inactive) | 4.38 µM (inactive) | 6.95 µM (inactive) | 4.7 µM (inactive) | 15 µM (inactive) | 2.4 µM (inactive) | 7.53 µM (inactive) | 2.25 µM (inactive) | – | –
COc1ccc(Cc2nc3ccccc3s2)cc1OC | 23.5 µM (inactive) | 17.1 µM (inactive) | 20.8 µM (inactive) | 19.6 µM (inactive) | 14.8 µM (inactive) | 22.3 µM (inactive) | 17.7 µM (inactive) | 28.2 µM (inactive) | 21 µM (inactive) | 21.1 µM (inactive) | 17.3 µM (inactive) | 17.9 µM (inactive) | 16.8 µM (inactive) | 29.6 µM (inactive) | 17.8 µM (inactive) | 15.8 µM (inactive) | 18.4 µM (inactive) | – | –
CN(C)/C(F)=P\C(F)(F)F (stereo not given) | > 100 µM (inactive) | > 100 µM (inactive) | > 100 µM (inactive) | > 100 µM (inactive) | > 100 µM (inactive) | > 100 µM (inactive) | > 100 µM (inactive) | > 100 µM (inactive) | > 100 µM (inactive) | > 100 µM (inactive) | – | > 100 µM (inactive) | > 100 µM (inactive) | > 100 µM (inactive) | > 100 µM (inactive) | > 100 µM (inactive) | > 100 µM (inactive) | – | –
CCCCCCCCCCCCCCCC(=O)OCCOCCOCCOCCOCCOC(=O)CCCCCCCCCCCCCCC | > 100 µM (inactive) | > 100 µM (inactive) | > 100 µM (inactive) | > 100 µM (inactive) | > 100 µM (inactive) | > 100 µM (inactive) | > 100 µM (inactive) | > 100 µM (inactive) | > 100 µM (inactive) | > 100 µM (inactive) | > 100 µM (inactive) | > 100 µM (inactive) | > 100 µM (inactive) | > 100 µM (inactive) | > 100 µM (inactive) | > 100 µM (inactive) | > 100 µM (inactive) | – | –
C[C@@H]1C(=O)CC2C(C)(C)CCC[C@]2(C)[C@@]12CC[C@]1(C=COC1)O2 (stereo not given in full) | 36.1 µM (inactive) | 18.7 µM (inactive) | 42.9 µM (inactive) | 16 µM (inactive) | 23.4 µM (inactive) | > 100 µM (inactive) | 13.8 µM (inactive) | 27.5 µM (inactive) | 91 µM (inactive) | 38.1 µM (inactive) | 36.4 µM (inactive) | 33.3 µM (inactive) | 32.5 µM (inactive) | 50.8 µM (inactive) | 19.2 µM (inactive) | 64.7 µM (inactive) | 18.7 µM (inactive) | – | –
O=[N+]([O-])c1cc([N+](=O)[O-])c(C(Cl)C(Cl)c2ccccc2)cc1C(Cl)C(Cl)c1ccccc1 (stereo not given) | 2.05 µM (inactive) | 1.75 µM (inactive) | 2.2 µM (inactive) | 1.33 µM (inactive) | 2.21 µM (inactive) | 2.14 µM (inactive) | 1.6 µM (inactive) | 6.34 µM (inactive) | 2.23 µM (inactive) | 1.76 µM (inactive) | 2.2 µM (inactive) | 1.69 µM (inactive) | 1.77 µM (inactive) | 3.66 µM (inactive) | 1.61 µM (inactive) | 1.77 µM (inactive) | 7.29 µM (inactive) | – | –
COC(=O)c1c[nH]cc1CCc1c[nH]cc1C(=O)OC | > 100 µM (inactive) | > 100 µM (inactive) | > 100 µM (inactive) | 27.2 µM (inactive) | > 100 µM (inactive) | > 100 µM (inactive) | > 100 µM (inactive) | > 100 µM (inactive) | > 100 µM (inactive) | > 100 µM (inactive) | > 100 µM (inactive) | > 100 µM (inactive) | > 100 µM (inactive) | > 100 µM (inactive) | 58.1 µM (inactive) | > 100 µM (inactive) | > 100 µM (inactive) | – | –
O=c1c(O)c(-c2ccccc2)n(O)c2ccc(Cl)cc12 | 29.6 µM (inactive) | 20.8 µM (inactive) | – | 23.1 µM (inactive) | 23.9 µM (inactive) | 38.9 µM (inactive) | 34.6 µM (inactive) | 30.8 µM (inactive) | 19.1 µM (inactive) | 17.7 µM (inactive) | 32.3 µM (inactive) | 28.7 µM (inactive) | 30.6 µM (inactive) | 27.9 µM (inactive) | 21.4 µM (inactive) | 27.4 µM (inactive) | 24.1 µM (inactive) | – | –
CC(C)CC(NC(=O)OCc1ccccc1)C(=O)NCCCCC(N)C(=O)NC(CCCCNC(=O)C(CC(C)C)NC(=O)OCc1ccccc1)C(=O)NC(CCCCNC(=O)C(CC(C)C)NC(=O)OCc1ccccc1)C(=O)NC(CCCCNC(=O)C(CC(C)C)NC(=O)OCc1ccccc1)C(=O)NC(CCCCNC(=O)C(CC(C)C)NC(=O)OCc1ccccc1)C(=O)NC(CCCCNC(=O)C(CC(C)C)NC(=O)OCc1ccccc1)C(=O)O (stereo not given) | > 100 µM (inactive) | > 100 µM (inactive) | – | – | > 100 µM (inactive) | > 100 µM (inactive) | – | – | > 100 µM (inactive) | > 100 µM (inactive) | > 100 µM (inactive) | > 100 µM (inactive) | > 100 µM (inactive) | > 100 µM (inactive) | > 100 µM (inactive) | – | > 100 µM (inactive) | > 100 µM (inactive) | –
COc1ccc(C(=O)c2[nH]c(Nc3cc(C)ccn3)c(C(=S)Nc3ccccc3)c2N)cc1 | 23.4 µM (inactive) | 18.2 µM (inactive) | 22.3 µM (inactive) | 16.9 µM (inactive) | – | 26.1 µM (inactive) | – | 19.5 µM (inactive) | 17.1 µM (inactive) | 17.1 µM (inactive) | 41.6 µM (inactive) | 21 µM (inactive) | 30.4 µM (inactive) | 24.7 µM (inactive) | 13.8 µM (inactive) | 21.9 µM (inactive) | 24.3 µM (inactive) | 15.3 µM (inactive) | 3.49 µM (inactive)
CC(C)c1cc(OCC(O)CO)cc(C(C)C)c1 (stereo not given) | > 100 µM (inactive) | > 100 µM (inactive) | > 100 µM (inactive) | > 100 µM (inactive) | > 100 µM (inactive) | > 100 µM (inactive) | > 100 µM (inactive) | > 100 µM (inactive) | > 100 µM (inactive) | > 100 µM (inactive) | > 100 µM (inactive) | > 100 µM (inactive) | > 100 µM (inactive) | > 100 µM (inactive) | > 100 µM (inactive) | > 100 µM (inactive) | > 100 µM (inactive) | – | –
NS(=O)(=O)c1cc2c(cc1Cl)NC(C(=O)NNC(=O)c1ccncc1)=NS2(=O)=O | > 100 µM (inactive) | > 100 µM (inactive) | > 100 µM (inactive) | > 100 µM (inactive) | > 100 µM (inactive) | – | > 100 µM (inactive) | > 100 µM (inactive) | > 100 µM (inactive) | > 100 µM (inactive) | > 100 µM (inactive) | > 100 µM (inactive) | > 100 µM (inactive) | > 100 µM (inactive) | > 100 µM (inactive) | > 100 µM (inactive) | > 100 µM (inactive) | – | –
CC(C)(C)C#C[P+](c1ccccc1)(c1ccccc1)c1ccccc1 | 0.253 µM (active) | 0.192 µM (active) | 0.566 µM (active) | 0.329 µM (active) | 0.108 µM (active) | 1.15 µM (inactive) | 0.194 µM (active) | 0.655 µM (active) | 0.33 µM (active) | 0.293 µM (active) | 0.351 µM (active) | 0.337 µM (active) | 1.39 µM (inactive) | 0.277 µM (active) | 0.15 µM (active) | 0.203 µM (active) | 0.057 µM (active) | – | –
COc1ccc2nc3c(c(NCCCN(C)C)c2c1)CCCC3 | 21.4 µM (inactive) | 17.2 µM (inactive) | 17.4 µM (inactive) | 14.8 µM (inactive) | 4.83 µM (inactive) | 13.5 µM (inactive) | 5.28 µM (inactive) | 20.5 µM (inactive) | 16.3 µM (inactive) | 8.81 µM (inactive) | 19.4 µM (inactive) | 15.4 µM (inactive) | 20.4 µM (inactive) | 16.4 µM (inactive) | 14.9 µM (inactive) | > 10 µM (inactive) | 7.67 µM (inactive) | – | –
Cc1cc(S(=O)(=O)Nc2nc3cscc3c(=O)n2N)c(S)cc1Cl | 28.2 µM (inactive) | 56.4 µM (inactive) | 70.1 µM (inactive) | – | 62.8 µM (inactive) | 26.5 µM (inactive) | – | > 100 µM (inactive) | 8.15 µM (inactive) | 47.5 µM (inactive) | 45 µM (inactive) | 54.6 µM (inactive) | 56.2 µM (inactive) | 49.3 µM (inactive) | 32.8 µM (inactive) | 17.7 µM (inactive) | > 100 µM (inactive) | 51.4 µM (inactive) | 26.3 µM (inactive)
